Source: patent publication US20100273748A1, “ANTIMICROBIAL THERAPY” (priority 2006, published 2010)

How the values were obtained:
[1] = test system: Staphylococcus aureus; assay: Bacterial growth inhibition (turbidity OD600) with or without carbonate; type: cell-based; settings: for inhibition of S. aureus growth: 32 μM LL-37
[2] = test system: S. aureus; assay: Electron microscopy of bacterial cell wall lysis; type: cell-based
[3] = test system: S. aureus DmprF; assay: Antimicrobial activity of keratinocyte lysates (bacterial growth, OD600); type: cell-based, Staphylococcus aureus; settings: versus unstimulated keratinocytes
Description: Panel a: NHEKs were stimulated with 1,25D3 (10^−9-10^−7 M) in the presence of the HDAC inhibitor butyrate (BUT; 2 mM) for 24 hours. mRNA abundance was determined by real-time qPCR for cathelicidin and glyceraldehyde-3-phosphate dehydrogenase and normalized to vehicle-treated controls. […] Data shown are means (7SD) of the results from a single stimulation experiment performed in triplicates and are representative of at least three independent experiments (**P<0.01; ***P<0.001; two-way analysis of variance). Panel b: The HDAC inhibitor TSA (200 ng ml^−1) induces cathelicidin in the presence of 1,25D3 (10^−8M). Expression of cathelicidin is dependent on a functional VDR, as pretreatment with the VDR antagonist ZK159222 (10^−7 M) inhibits induction of cathelicidin with BUT (2 mM) in the presence of 1,25D3 (10^−8 M) after 24 hours. Expression of cathelicidin was determined by qPCR as described in Panel a. (*P<0.05; Student's t-test). Panel c: Increased transcript correlates with enhanced cathelicidin protein expression after HDAC inhibitor and 1,25D3 stimulation. NHEKs grown on chamber slides were stimulated with the vehicle, 1,25D3 (10^−8M), BUT (2 mM), or the combination for 24 hours. Cells were stained with a polyclonal anti-LL-37 antibody (followed by an FITC-coupled secondary antibody) and nuclei detected with 4,6-diamidino-2-phenylindole (Bar=30 μM). […] NHEKs were stimulated with 1,25D3 (10^−8M) in combination with the HDAC inhibitor BUT (2 mM) for 24 hours, cells harvested and cell lysates co-incubated with S. aureus DmprF, and bacterial growth monitored over time to determine antimicrobial activity. Media not containing cell lysates or containing cell lysates from unstimulated cells were used as controls.

[4] = test system: cathelicidin; assay: qPCR of cathelicidin mRNA in cultured keratinocytes; type: cell-based, human; settings: normal human keratinocytes and HaCat cell line
Description: Cell culture and stimuli. Human keratinocytes were grown in serum-free EpiLife® cell culture media (Cascade Biologics; Portland, Oreg.) containing 0.06 mM Ca2+ and 1× EpiLife® defined growth supplement (EDGS) at 37° C. under standard tissue culture conditions. Stock cultures were maintained for up to five passages in this media with the addition of 50 U/mL penicillin and 50 μg/mL streptomycin. HaCaT keratinocytes were cultured in DMEM (Sigma, St. Louis, Mo.) with 10% FCS. Cells at 50-70% confluence were stimulated in fresh medium after preincubation with 1,25(OH)2 vitamin D3 (1,25D3; 0.1-100 nM, 4-24 h; Sigma). Alternatively, NHEK were stimulated in the presence of 1,25D3 (0.1-100 nM). Stimuli included TLR2,6 ligands Malp-2 (0.001-0.5 μg/ml; Alexis Biochemicals, Carlsbad, Calif.), FSL-1 (1-2 μg/ml, Invivogen, San Diego, Calif.) and zymosan (50 μg/ml; Invivogen), as well as flagellin (50 ng/ml; Alexis), LPS (1 μg/ml; Sigma), lipoteichoic acid (LTA; 10 μg/ml; Sigma), 19 kDA lipopeptide (10 μg/ml, a kind gift from S. Krutzik, Division of Dermatology, UCLA), CpG DNA (10 μg/ml; Sigma), Ca2+ (1.7 mM), LPS (1 μg/ml; Sigma), TNFα (20 ng/ml; Chemicon Temecula, Calif.) and TGFβ1 (0.1-1 μg/ml; R&D Systems, Minneapolis, Minn.). A TLR2 blocking antibody (αTLR2; clone TL2.1, 5 μg/ml, eBioscience, San Diego, Calif.) was utilized to investigate the role of TLR2 signaling. Furthermore, keratinocytes were pretreated with a vitamin D receptor antagonist (VDR-antagonist ZK159222 Schering AG; 10^-7M) or the CYP inhibitor itraconazole (ITRA; 10^-7M) before stimulation with TGFβ in the presence of 25OH vitamin D3 (25D3, 10 nM, Sigma).
Real-time RT-PCR (qPCR). RNA was extracted from cells, epidermal constructs or tissue using Trizol® and 1 μg RNA was reverse transcribed using iScript® (BioRad, Hercules, Calif.). Expression of cathelicidin and GAPDH was analysed by real-time RT-PCR. Predeveloped Taqman® assay probes (ABI, Foster City, Calif.) were used for the analyses of the expression of CYP24A1 (24-hydroxylase), CYP27B1 (1α-hydroxylase), CD14, CD36, TLR1, TLR2, TLR4, TLR6 and murine CD14. All analyses were performed in triplicate from 2-5 independent experiments in an ABI Prism® 7000 Sequence Detection System. Fold induction relative to the vehicle treated control in in vitro experiments was calculated using the comparative Ct method, where ΔΔCt is ΔCt(stimulant)-ΔCt(vehicle), ΔCt is Ct(gene)-Ct(GAPDH) and Ct is the cycle at which an arbitrary detection threshold is crossed. For quantification of transcript abundance in tissue samples target gene expression was normalized to GAPDH and compared to non-treated or non-injured skin.

[5] = test system: keratinocytes; assay: Keratinocyte morphology, LDH release and Annexin V/propidium iodide staining; type: cell-based, human; settings: 24 hours after butyrate alone or in combination with 1,25D3
[6] = test system: dendritic cells; assay: Pro-inflammatory chemokine release from dendritic cells; type: cell-based
[7] = test system: neutrophil and mast cell; assay: Neutrophil and mast cell chemotaxis; type: cell-based
[8] = test system: Staphylococcus aureus mprF; assay: Radial diffusion assay; type: cell-based
Description: Sweat collection and processing. Sweat was collected on paper tissues (Kimwipes, Kimberly-Clark, Ga.) from healthy volunteers after exercise. After collection, 20 ml of sweat was centrifuged at 2000 g for 15 min. at 4° C., filtered through a […] (Acrodisc syringe filter, 0.2 mm, low protein binding, Fisher scientific, Tustin, Calif.), and frozen at −80° C. For some experiments sweat was lyophilized to dryness, then suspended in 400 μl of distilled water (DW: cell culture grade, endotoxin free, GibcoBRL, Grand island, NY). For analysis of LL37 processing by sweat, 1.6 nmol of LL-37 synthetic peptide was incubated in 50 ml of sweat for 0, 1, 6, 24 hrs at 37° C. or 4° C. In some experiments proteinase inhibitors including; mixed protease inhibitor cocktail (1tab/10 ml, Roche, Indianapolis, Ind.), […] Bestatin, 10 mg/ml E-64, 10 mg/ml Aprotinin, (Sigma, St Louis, Mo.); 100 mM AEBSF, 100 mM Neutrophil elastase inhibitor (NEI) or 100 mM leukocyte elastase inhibitor (LEI) (Calbiochem, San Diego, Calif.) were added during incubation. After incubation, 2 ml was assayed by radial diffusion assay to determine antibacterial activity. For analysis by HPLC 32 nmoles LL-37 was incubated in 100u1. To control for potential contamination from paper tissues, parallel processing was done on tissues soaked in phosphate-buffered saline (PBS:137 mM NaCl, 2.7 mM KCL, 4.3 mM Na2HPO4-H2O, 1.4 mM KH2PO4, pH 7.4). No antimicrobial activity was detectable in these preparations. Protein concentrations were evaluated by BCA assay (protein assay reagent, Pierce, Rockford, Ill.) or Bradford protein assay (Bio-Rad, Hercules, Calif.) according to manufacture's instructions. Human tissue and blood collection was approved by the UCSD Human Research Protection Program.
Antimicrobial assays. For screening of antimicrobial activity of HPLC fractions, radial diffusion assay was used. Lyophilized HPLC fractions were dissolved in DW (GibcoBRL, Grand Island, N.Y.), and tested against Staphylococcus aureus mprF. Thin plates (1 mm) of 1% agarose in 0.5% tryptone containing approximately 1×10^6 cells/ml of S. aureus mprF were used. 1 mm wells were punched in the plates and […] of samples dissolved in tissue culture grade sterile water were loaded in each well.

[9] = test system: IL-8; assay: IL-8 release from normal human keratinocytes (ELISA); type: cell-based
Description: Measurement of IL-8 release from keratinocytes Normal human keratinocytes (NHK) were cultured in EpiLife cell medium (Cascade Biologics, Portland, Oreg.) containing 0.06 mM Ca2+, 1× EpiLife-defined growth supplement (EDGS), 50 U/ml penicillin and […] streptomycin (Invitrogen, Carlsbad, Calif.). Keratinocytes were seeded in a 96-well plate and grown to confluence under standard tissue culture conditions. Cells were incubated with […] LL-37 or LL37-derived peptides (e.g., cathelicidin functional fragments) for 8 hours at 37° C. Supernatants were collected and stored at −20° C. overnight. IL-8 ELISA Assay was performed according to the manufacturer's instructions (BD OptEIA, Pharmingen, San Diego, Calif.). Supernatants were diluted 1:10 for assay. Simultaneously, LDH assays (Roche, Indianapolis, Ind.) were used to assess the cytotoxicity of peptides to keratinocytes. LDH release following peptide exposure was compared to release induced by 1% Triton X100.

[10] = test system: S. aureus; assay: Release of cytoplasmic-expressed beta-galactosidase (membrane disruption); type: cell-based; settings: with versus without NaHCO3
Description: Release of cytoplasmic-expressed beta-galactosidase was measured from bacteria with and without the addition of NaHCO3.

[11] = test system: wild-type S. aureus (clinical isolate); assay: Radial diffusion assay; type: cell-based
[12] = target: T1, FPRL-1 (Homo sapiens, UniProt P25090); assay: FPRL-1 binding
T1 sequence (P25090 1-351): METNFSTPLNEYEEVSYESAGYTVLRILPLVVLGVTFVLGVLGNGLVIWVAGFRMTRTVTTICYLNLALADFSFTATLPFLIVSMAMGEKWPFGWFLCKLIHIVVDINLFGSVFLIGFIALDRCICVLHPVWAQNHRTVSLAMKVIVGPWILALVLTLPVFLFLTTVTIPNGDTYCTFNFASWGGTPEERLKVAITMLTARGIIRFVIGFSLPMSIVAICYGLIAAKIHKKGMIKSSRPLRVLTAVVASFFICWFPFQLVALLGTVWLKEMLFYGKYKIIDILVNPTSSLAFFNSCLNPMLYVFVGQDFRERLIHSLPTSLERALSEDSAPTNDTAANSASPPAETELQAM

[13] = test system: CYP27B1; assay: qPCR of CYP27B1 mRNA in cultured keratinocytes; type: cell-based, human; settings: 24 hours, TGF 1 μg/ml, TNFα 20 ng/ml, TLR2 ligand Malp-2
Description: Cell culture and stimuli. Human keratinocytes were grown in serum-free EpiLife® cell culture media (Cascade Biologics; Portland, Oreg.) containing 0.06 mM Ca2+ and 1× EpiLife® defined growth supplement (EDGS) at 37° C. under standard tissue culture conditions. Stock cultures were maintained for up to five passages in this media with the addition of 50 U/mL penicillin and 50 μg/mL streptomycin. HaCaT keratinocytes were cultured in DMEM (Sigma, St. Louis, Mo.) with 10% FCS. Cells at 50-70% confluence were stimulated in fresh medium after preincubation with 1,25(OH)2 vitamin D3 (1,25D3; 0.1-100 nM, 4-24 h; Sigma). Alternatively, NHEK were stimulated in the presence of 1,25D3 (0.1-100 nM). […]
Real-time RT-PCR (qPCR). […] Expression of cathelicidin and GAPDH was analysed by real-time RT-PCR. […] Fold induction relative to the vehicle treated control in in vitro experiments was calculated using the comparative Ct method, where ΔΔCt is ΔCt(stimulant)-ΔCt(vehicle), ΔCt is Ct(gene)-Ct(GAPDH) and Ct is the cycle at which an arbitrary detection threshold is crossed. For quantification of transcript abundance in tissue samples target gene expression was normalized to GAPDH and compared to non-treated or non-injured skin.

## O=C(O)O [NaHCO3]
[1]; 25 mM NaHCO3, no peptide
  effect of NaHCO3 alone on bacterial growth: without effecting bacterial growth
[1]; high concentrations of NaHCO3
  effect of NaHCO3 alone on bacterial growth: retarded the growth of S. aureus
[1]; medium with 32 μM LL-37, pH 7.4, KHCO3 and Na2CO3 at 50 mM
  increase of LL-37 antimicrobial activity by carbonate containing compound: responsible for this increase
[2]; 25 mm NaHCO3 alone
  bacterial cell wall damage (EM): no visible effect

## C=C1CC[C@H](O)C/C1=C/C=C1\CCC[C@]2(C)[C@@H]([C@H](C)CCCC(C)C)CC[C@@H]12 [Vitamin D3]
[3]
  antimicrobial activity of stimulated keratinocytes against Staphalococcus aureus: enhanced antimicrobial activity
[4]
  expression of cathelicidin: induced the expression of cathelicidin

## CCCC(=O)O [butyrate]
[5]
  cell morphology, cell death or apoptosis: no change was seen in cell morphology, cell death or apoptosis

## LLGDFFRKSKEKIGKEFKRIVQRIKDFLRNLVPRTES [LL-37]
[1]; TSB media alone, or with NaCl and FBS
  inhibition of S. aureus growth: inhibited Staphalococcus aureus growth poorly
[1]; in the presence of MEM buffers
  inhibition of S. aureus growth: inhibition was greatly increased
[1]; 32 μM LL-37 with 25 mM NaHCO3, pH 7.4
  growth of S. aureus: complete inhibition of bacterial growth
[1]; 50 mM NaHCO3 or 50 mM glycine buffer at various pH
  antimicrobial activity of LL-37, bicarbonate versus pH: Only bicarbonate containing media was able to confer increased antimicrobial activity
[1]; 20% TSB, 1 mM NaH2PO4, with or without 50 mM NaHCO3, pH 7.4
  change of minimal inhibitory concentration (MIC) by NaHCO3: greatly reduced
[6]
  pro-inflammatory chemokine release from dendritic cells: blocks pro-inflammatory chemokine release
[2]; 32 μM LL-37, absence of NaHCO3, four hours
  bacterial cell wall damage (EM): caused a small amount of damage to bacterial cell walls
[2]; 32 μM LL-37 with 25 mM NaHCO3, four hours
  bacterial cell wall damage (EM): totally ablated them
[7]
  neutrophil and mast cell chemotaxis: induces neutrophil and mast cell chemotaxis
[8]; identical conditions in PBS or distilled water
  zone of inhibition after incubation of LL-37 in PBS or distilled water: did not affect activity
[8]; incubation at 37° C. in sweat
  zone of inhibition after incubation of LL-37 in sweat: increased the zone of inhibition and apparent antimicrobial activity
[8]; incubation in sweat at 4° C.
  zone of inhibition after incubation of LL-37 in sweat: did not occur at 4 °C
[9]
  pro-inflammatory release from keratinocytes: induces pro-inflammatory release
[10]
  leakage of cytoplasmic protein (beta-galactosidase): induces greater leakage of cytoplasmic protein with carbonate
[11]
  Radial Diffusion Assay, minimal inhibitory concentration (MIC), S. aureus (wt): 4 μm
[12]
  binding to FPRL-1: bind FPRL-1

## Polymyxin B
[10]
  leakage of cytoplasmic protein (beta-galactosidase): induces greater leakage of cytoplasmic protein with carbonate

## TNFα
[13]
  CYP27B1 expression: had no effect
